Patent US20140171465A1, “Methods For Increasing Reticulocyte Hemoglobin Content” (FibroGen, Inc., priority 2011, published 2014)

Legend:
Format in all cases: in vivo
[1] = system: human subjects with stage 3 and stage 4 chronic kidney disease; assay: Reticulocyte hemoglobin content (CHr) in human subjects with stage 3 or stage 4 chronic kidney disease, 17 weeks
Method: The effect of compound of the present invention on CHr was determined in human subjects with stage 3 and stage 4 chronic kidney disease patients (eGFR<60 ml/min) as follows. Subjects with stage 3 or stage 4 chronic kidney disease not receiving dialysis were administered Compound A at either approximately 1.2 mg/kg twice weekly or 70 mg fixed dose thrice weekly for a period of 17 weeks. Dose adjustments were permitted from week 5 onward to correct and maintain subjects to a target hemoglobin range; however, doses were not allowed to exceed 2.5 mg/kg per dose. CHr values were measured at week 9 and week 17.

[2] = system: human subjects with end-stage renal disease; assay: Mean hemoglobin levels in human subjects with end-stage renal disease, 6 weeks TIW; details: six week treatment period; Compound A 1.5 mg/kg and 2.0 mg/kg TIW; epoetin alfa TIW
[3] = system: human subjects with end-stage renal disease; assay: Reticulocyte hemoglobin content (CHr) in human subjects with end-stage renal disease, 6 weeks TIW; details: for Mean Change (pg) from Baseline CHr at Day 43 (6 weeks) of Treatment: ESRD on hemodialysis, no IV iron
Method: The effect of a compound of the present invention on CHr was determined in human subjects with end-stage renal disease as follows. In the current studies, subjects had been receiving stable maintenance hemodialysis for at least 4 months prior to the initiation of the present study. Additionally, subjects had been maintained on standard of care stable doses of epoetin alfa for the treatment of anemia prior to initiation of the present study.
In order to examine differences in the CHr response in subjects treated with compound of the invention compared to the CHr response in subject treated with epoetin alpha (the current standard of care), all IV iron supplementation was halted two weeks prior to treatment initiation. Administration of oral iron was allowed.
[…] Baseline CHr levels were determined prior to treatment (mean of two screening period measurements with the Day 1 measurement). CHr levels were measured weekly throughout the six-week study period.
In contrast, CHr decreased in subjects treated with epoetin alfa during the same time period.

[4] = system: human patients; assay: Safety and efficacy of tested doses in human patients; details: doses between 0.7 and 2.5 mg/kg administered TIW, BIW, or QW
Source text: In a particular embodiment, the present invention provides an efficacious therapeutic compound for treating a subject having reduced reticulocyte hemoglobin content. Specifically, the invention comprises the compound [(4-hydroxy-1-methyl-7-phenoxy-isoquinoline-3-carbonyl)-amino]-acetic acid for use in methods of increasing reticulocyte hemoglobin content (CHr) in a subject.

Cc1nc(C(=O)NCC(=O)O)c(O)c2ccc(Oc3ccccc3)cc12 [Compound A, [(4-hydroxy-1-methyl-7-phenoxy-isoquinoline-3-carbonyl)-amino]-acetic acid]
maintenance of mean CHr (FIG. 3B) ([1]; 70 mg fixed dose TIW, weeks 9 to 17): maintenance of mean CHr from 9 to 17 weeks | mean CHr over time (FIG. 3A, 3B) ([1]; approximately 1.2 mg/kg BIW or 70 mg TIW, 17 weeks, CKD stage 3/4 not on dialysis): mean CHr increased over time | changes in mean hemoglobin levels (FIG. 2) [2]: time-dependent increase in mean hemoglobin levels | Mean Change (pg) from Baseline CHr at Day 43 (6 weeks) of Treatment ([3]; 1 mg/kg TIW, N = 10): +0.41 pg | mean increase in CHr over baseline after 6 weeks of treatment ([3]; 1.3 mg/kg TIW (N=5)): 0.85 pg/cell | Mean Change (pg) from Baseline CHr at Day 43 (6 weeks) of Treatment ([3]; 1.5 mg/kg TIW, N = 9): +0.10 pg | mean increase in CHr over baseline after 6 weeks of treatment ([3]; 1.8 mg/kg TIW (N=5)): 0.82 pg/cell | Mean Change (pg) from Baseline CHr at Day 43 (6 weeks) of Treatment ([3]; 2.0 mg/kg TIW, N = 9): +0.44 pg | change from baseline of the mean CHr over time (FIG. 1) ([3]; six week treatment period, Compound A 1.0, 1.5 and 2.0 mg/kg TIW, epoetin alfa TIW): increase in mean CHr over time | safety and efficacy of tested doses [4]: safe, useful, and effective
